In assay [1] the test system is pSTAT6 in BEAS-2B human cell line. Put plainly: Inhibition of IL-13 induced pSTAT6 in BEAS. The format is cell-based. The settings on record: for pIC50 (BEAS) predicted acid metabolite / IC50: IL-13 trigger, 30 min; for IC50: Homo sapiens, BEAS-2B, 0.5 h, parent compound; for Fold difference parent vs predicted acid metabolite: ratio=IC50 predicted acid metabolite/IC50 ester. The procedure:
BEAS-2B human cell line was seeded (100.000 cells/well) and incubated for 48 h at 37° C., 5% CO2, 95% humidity. Compounds were added and incubated 30 min followed by IL-13 as trigger. After 30 min incubation, cells were lysed and pSTAT6 determined by Fastscan phospho-stat6 (Tyr641) sandwich ELISA kit (cell signaling). Inhibitors were tested at 11 consecutive 5-fold dilutions starting from 10 μM (10 μM-[…]) in duplicate. Calculation of IC50 data, curves and QC analysis were made using Excel tools and GraphPadPrism software. QC criteria parameters: Z′≥0.35, Hill Slope range 0.5 to 5, S:B>2.

Another assay has as its target TYK2 (Homo sapiens, UniProt P29597). Put plainly: Biochemical potency on Tyk2, TR-FRET (LANCE Ultra kinase assay). The settings on record: ATP corresponding to Km; cell-free; read-out: TYK2 inhibitory activity (pIC50) (converted). The method, then: (§1) The objective of this study was to assess the capability of compounds to inhibit all 4 JAK isoforms activity in a cell-free environment. Assay for JAK 1, JAK 2, JAK 3 and TYK2 were performed by Time-resolved fluorescence resonance energy transfer (TR-FRET) technology. It consists in the interaction of two labelled binding partners detected by the energy transfer from an excited donor to an acceptor dye and measurement of light emission by the acceptor dye. LANCE Ultra kinase assay was used. In presence of JAK 1, JAK 2, JAK 3 and TYK2 kinases and ATP (corresponding to Km), the ULight peptide substrate (LANCE Ulight-JAK-1 (Tyr1023) Peptide, Perkin Elmer, TRF0121) is phosphorylated. It is then captured by Eu-anti-phospho-substrate antibody (LANCE Eu-W1024 Anti-phosphotyrosine (PT66), Perkin Elmer, AD0069), which bring the Eu-chelate donor and ULight acceptor dyes into close proximity. Upon excitation at 320 nm, the Eu-chelate transfers its energy to the ULight dye, resulting in a fluorescent light emission at 665 nm.
(§2) Serial dilutions of compounds in pure DMSO are prepared from 10 mM DMSO stock solutions. Compounds were tested in 384-well plate for 11 consecutive 5-fold dilutions starting from 20 μM highest concentration (20 μM-[…]). 200 nL of compound were transferred from mother plate to test plate by using Mosquito (TTP labtech). Assay was performed in 384-well Perkin Elmer test plate in 20 μL assay volume (kinase reaction) and 40 μL total volume (stopping reagent and antibody detection reagents). In 10 μL of substrate solution (peptide+ATP) 30/50/20/10 nM of peptide and 20/0.7/0.2/12 μM of ATP were added for JAK 1, JAK 2, JAK 3 and TYK2 respectively. 10 μL of enzyme solution was added to kinase reaction at these concentrations: 0.15/0.083/0.025/0.144 ng/μL of JAK 1, JAK 2, JAK 3 and TYK2 respectively. After shaking and 1.5 h of incubation at r.t., 20 μL of Stop (10 μL EDTA) and Detection mixture (10 μL Europium-anti-phospho antibody, final: 0.5 nM) were added. Reading was performed after 1 h of incubation on a En Vision 2104 reader (Perkin Elmer).
(§3) Calculation of IC50 data, curves and QC analysis was performed by using Excel tool and GraphPadPrism software, v9. Briefly, individual concentration-effect curves are generated by plotting the logarithm of the tested concentration of tested compounds (X) vs. corresponding percent inhibition values (Y) using least squares (ordinary) fit. Best fit IC50 values are calculated using Log (inhibitor) vs. normalized response—Variable slope equation, where Y=100/(1+10^((LogIC50−X)*HillSlope)). QC criteria parameters (Z′, S:B, R2, HillSlope) were checked for every IC50 curve. Calculation of IC50 data, curves and QC analysis were made using Excel tools and GraphPadPrism software. QC criteria parameters: Z′≥0.5, Hill Slope range 0.5 to 5, S:B>2.
(In general: Time-resolved FRET reads energy transfer from a long-lived donor to a nearby acceptor.)

For the next assay, the target named is JAK1 (Homo sapiens, UniProt P23458). Put plainly: Biochemical potency on JAK1, TR-FRET (LANCE Ultra kinase assay). The settings on record: ATP corresponding to Km; cell-free; read-out: JAK1 inhibitory activity (pIC50) (converted). The procedure:
as §1, §2, §3

The next assay has as its target T1, JAK3 (Homo sapiens, UniProt P52333).
T1 sequence (P52333 1-1124): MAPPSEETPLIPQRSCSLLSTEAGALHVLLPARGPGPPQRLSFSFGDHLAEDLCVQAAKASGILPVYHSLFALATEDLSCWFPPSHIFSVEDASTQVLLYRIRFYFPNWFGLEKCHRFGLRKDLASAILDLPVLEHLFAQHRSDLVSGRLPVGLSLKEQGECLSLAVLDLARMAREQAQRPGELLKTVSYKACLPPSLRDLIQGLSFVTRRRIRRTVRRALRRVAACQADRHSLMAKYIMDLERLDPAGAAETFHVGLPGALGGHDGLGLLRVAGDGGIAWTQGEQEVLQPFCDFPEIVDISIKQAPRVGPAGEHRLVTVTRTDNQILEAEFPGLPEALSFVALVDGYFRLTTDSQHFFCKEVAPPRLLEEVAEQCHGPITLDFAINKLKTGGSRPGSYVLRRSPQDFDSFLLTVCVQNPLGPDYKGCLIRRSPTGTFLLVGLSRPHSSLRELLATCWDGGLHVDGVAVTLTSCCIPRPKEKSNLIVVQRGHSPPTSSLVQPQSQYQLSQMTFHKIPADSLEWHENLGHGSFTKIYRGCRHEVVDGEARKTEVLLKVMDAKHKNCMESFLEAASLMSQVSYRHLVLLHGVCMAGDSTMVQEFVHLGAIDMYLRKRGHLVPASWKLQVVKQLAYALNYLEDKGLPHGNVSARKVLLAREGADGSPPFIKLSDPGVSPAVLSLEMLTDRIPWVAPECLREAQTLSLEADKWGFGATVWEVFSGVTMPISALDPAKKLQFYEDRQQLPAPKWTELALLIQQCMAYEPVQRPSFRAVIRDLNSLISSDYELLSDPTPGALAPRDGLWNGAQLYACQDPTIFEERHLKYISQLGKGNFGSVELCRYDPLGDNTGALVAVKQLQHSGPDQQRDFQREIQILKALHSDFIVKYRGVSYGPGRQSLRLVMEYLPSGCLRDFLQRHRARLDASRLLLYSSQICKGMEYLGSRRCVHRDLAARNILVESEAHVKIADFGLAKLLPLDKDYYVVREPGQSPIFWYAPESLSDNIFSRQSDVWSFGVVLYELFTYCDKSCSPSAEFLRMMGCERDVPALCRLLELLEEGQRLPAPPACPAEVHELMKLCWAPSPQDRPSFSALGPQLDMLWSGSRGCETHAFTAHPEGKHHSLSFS
In words: Biochemical potency on JAK3, TR-FRET (LANCE Ultra kinase assay). To be noted: ATP corresponding to Km; cell-free; read-out: JAK3 inhibitory activity (pIC50) (converted). The procedure: as §1, §2, §3

The next assay has as its target JAK2 (Homo sapiens, UniProt O60674). Put plainly: Biochemical potency on JAK2, TR-FRET (LANCE Ultra kinase assay). To be noted: ATP corresponding to Km; cell-free; read-out: JAK2 inhibitory activity (pIC50) (converted). The procedure: as §1, §2, §3

JAK2, sequence (O60674 whole entry): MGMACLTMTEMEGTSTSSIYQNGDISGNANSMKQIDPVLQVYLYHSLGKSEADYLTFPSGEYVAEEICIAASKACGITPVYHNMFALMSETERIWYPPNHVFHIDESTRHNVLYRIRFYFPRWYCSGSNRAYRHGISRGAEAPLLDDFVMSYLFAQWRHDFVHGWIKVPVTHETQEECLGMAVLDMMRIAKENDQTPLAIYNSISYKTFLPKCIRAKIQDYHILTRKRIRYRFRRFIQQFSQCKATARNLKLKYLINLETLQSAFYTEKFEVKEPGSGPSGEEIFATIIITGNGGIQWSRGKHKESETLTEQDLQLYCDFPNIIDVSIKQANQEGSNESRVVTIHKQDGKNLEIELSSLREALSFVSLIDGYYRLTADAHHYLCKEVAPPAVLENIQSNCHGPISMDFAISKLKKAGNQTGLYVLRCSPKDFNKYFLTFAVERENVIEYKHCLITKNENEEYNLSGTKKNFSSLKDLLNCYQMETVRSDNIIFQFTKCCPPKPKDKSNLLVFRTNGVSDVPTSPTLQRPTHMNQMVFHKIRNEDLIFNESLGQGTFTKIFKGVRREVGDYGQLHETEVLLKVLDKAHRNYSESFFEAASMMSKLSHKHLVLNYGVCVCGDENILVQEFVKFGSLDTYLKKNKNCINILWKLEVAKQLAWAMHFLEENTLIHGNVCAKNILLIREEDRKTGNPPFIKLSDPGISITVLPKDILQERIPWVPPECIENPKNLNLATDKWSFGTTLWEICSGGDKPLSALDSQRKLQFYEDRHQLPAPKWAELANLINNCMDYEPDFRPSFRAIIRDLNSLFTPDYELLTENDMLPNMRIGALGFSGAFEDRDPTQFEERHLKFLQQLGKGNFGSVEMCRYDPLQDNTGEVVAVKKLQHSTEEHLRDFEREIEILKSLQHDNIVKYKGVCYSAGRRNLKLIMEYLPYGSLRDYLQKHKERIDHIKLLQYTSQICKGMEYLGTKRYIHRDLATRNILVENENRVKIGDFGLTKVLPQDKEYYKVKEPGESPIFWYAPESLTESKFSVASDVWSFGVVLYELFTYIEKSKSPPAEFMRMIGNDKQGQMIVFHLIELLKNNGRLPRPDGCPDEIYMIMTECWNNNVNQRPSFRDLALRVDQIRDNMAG
TYK2, sequence (P29597 whole entry, canonical isoform): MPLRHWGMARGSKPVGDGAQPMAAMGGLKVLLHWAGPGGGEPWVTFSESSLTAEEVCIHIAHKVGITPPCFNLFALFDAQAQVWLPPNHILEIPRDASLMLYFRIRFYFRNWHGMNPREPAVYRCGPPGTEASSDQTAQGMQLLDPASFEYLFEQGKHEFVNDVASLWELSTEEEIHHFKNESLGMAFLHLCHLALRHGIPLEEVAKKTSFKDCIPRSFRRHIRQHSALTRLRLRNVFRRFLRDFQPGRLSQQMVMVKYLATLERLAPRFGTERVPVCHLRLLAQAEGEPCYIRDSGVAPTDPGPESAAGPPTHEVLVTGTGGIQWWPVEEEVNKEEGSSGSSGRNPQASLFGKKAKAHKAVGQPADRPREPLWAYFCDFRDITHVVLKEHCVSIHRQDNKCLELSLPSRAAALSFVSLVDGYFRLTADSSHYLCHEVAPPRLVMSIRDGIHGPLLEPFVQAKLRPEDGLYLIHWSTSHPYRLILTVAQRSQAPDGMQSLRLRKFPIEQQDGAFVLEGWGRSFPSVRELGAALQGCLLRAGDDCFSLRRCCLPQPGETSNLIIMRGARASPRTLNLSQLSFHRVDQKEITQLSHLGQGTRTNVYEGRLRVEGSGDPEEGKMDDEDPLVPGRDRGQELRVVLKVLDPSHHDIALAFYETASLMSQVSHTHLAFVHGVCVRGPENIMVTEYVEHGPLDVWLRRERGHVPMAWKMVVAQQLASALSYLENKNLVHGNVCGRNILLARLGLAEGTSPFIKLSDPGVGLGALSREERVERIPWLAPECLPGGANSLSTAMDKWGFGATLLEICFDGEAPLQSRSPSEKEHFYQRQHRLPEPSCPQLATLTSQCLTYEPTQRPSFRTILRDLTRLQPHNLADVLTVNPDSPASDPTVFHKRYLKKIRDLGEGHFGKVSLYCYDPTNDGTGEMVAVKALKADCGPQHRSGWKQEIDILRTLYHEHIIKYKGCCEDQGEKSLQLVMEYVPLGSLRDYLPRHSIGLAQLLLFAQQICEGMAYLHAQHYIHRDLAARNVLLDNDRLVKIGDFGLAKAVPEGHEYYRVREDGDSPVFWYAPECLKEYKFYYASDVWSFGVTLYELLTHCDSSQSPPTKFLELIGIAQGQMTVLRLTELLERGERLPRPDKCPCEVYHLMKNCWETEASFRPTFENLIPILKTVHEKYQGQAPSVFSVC
JAK1, sequence (P23458 whole entry): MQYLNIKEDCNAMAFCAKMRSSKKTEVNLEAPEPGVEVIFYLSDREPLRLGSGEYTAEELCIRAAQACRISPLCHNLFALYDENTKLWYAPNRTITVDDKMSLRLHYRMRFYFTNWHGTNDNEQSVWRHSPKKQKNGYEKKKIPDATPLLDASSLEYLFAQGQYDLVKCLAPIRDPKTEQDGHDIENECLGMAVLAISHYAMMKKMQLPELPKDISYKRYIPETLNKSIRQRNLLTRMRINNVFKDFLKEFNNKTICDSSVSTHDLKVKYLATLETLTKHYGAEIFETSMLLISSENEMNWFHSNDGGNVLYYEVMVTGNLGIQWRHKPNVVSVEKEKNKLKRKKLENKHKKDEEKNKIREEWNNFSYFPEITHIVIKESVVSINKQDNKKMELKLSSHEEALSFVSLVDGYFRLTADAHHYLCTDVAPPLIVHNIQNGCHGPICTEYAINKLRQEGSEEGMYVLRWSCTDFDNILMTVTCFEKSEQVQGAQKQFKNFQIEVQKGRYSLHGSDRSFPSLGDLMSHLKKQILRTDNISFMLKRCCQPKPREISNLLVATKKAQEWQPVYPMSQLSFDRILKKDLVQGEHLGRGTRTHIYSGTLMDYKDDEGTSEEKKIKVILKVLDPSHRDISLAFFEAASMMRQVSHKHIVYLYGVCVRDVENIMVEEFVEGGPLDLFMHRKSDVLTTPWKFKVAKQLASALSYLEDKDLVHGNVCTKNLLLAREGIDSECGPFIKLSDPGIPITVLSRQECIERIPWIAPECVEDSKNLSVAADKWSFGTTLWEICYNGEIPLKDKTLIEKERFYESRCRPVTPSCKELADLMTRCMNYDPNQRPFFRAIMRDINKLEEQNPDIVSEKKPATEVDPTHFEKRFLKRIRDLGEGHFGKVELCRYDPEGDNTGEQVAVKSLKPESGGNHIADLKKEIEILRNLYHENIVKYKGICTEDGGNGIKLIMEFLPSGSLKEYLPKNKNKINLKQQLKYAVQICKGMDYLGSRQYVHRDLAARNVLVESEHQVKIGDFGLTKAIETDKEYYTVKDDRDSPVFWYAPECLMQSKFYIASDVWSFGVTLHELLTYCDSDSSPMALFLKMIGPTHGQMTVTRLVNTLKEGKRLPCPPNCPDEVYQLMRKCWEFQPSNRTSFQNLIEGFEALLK

Regarding `COc1cc2c(cc1-n1nc(NC(=O)OCCN3CCC(C(=O)O)CC3)c3cnc(-c4cnn5cccnc45)cc31)OCCN2` [Example A8, reference compound], in assay [1], the “pIC50 (BEAS) predicted acid metabolite” value is “§ (pIC50<6.3)”.

For `COc1cc2c(cc1-n1nc(C(=O)NCCN3CC[C@@H](C(=O)O[C@@H]4CCN(CCF)C4)C3)c3cnc(-c4cnn5cccnc45)cc31)OCCN2` [Example 55, (R)-1-(2-fluoroethyl)pyrrolidin-3-yl (R)-1-(2-(1-(6-methoxy-3,4-dihydro-2H-benzo[b][1,4]oxazin-7-yl)-6-(pyrazolo[1,5-a]pyrimidin-3-yl)-1H-pyrazolo[4,3-c]pyridine-3-carboxamido)ethyl)pyrrolidine-3-carboxylate], the IC50 in assay [1] is 5.01 to 50.1 nM; at TYK2 it was 5.01 to 50.1 nM; on JAK1, at most 5.01 nM; at JAK3, at most 5.01 nM; on JAK2 it was at most 5.01 nM. In addition, the “Fold difference parent vs predicted acid metabolite” value in assay [1] is on record as “kk (100>ratio≥10)”.

As for `COc1cc2c(cc1-n1nc(C(=O)NCCN3CCC(C(=O)O)CC3)c3cnc(-c4cnn5cccnc45)cc31)OCCN2` [Example A1, 1-(2-(1-(6-methoxy-3,4-dihydro-2H-benzo[b][1,4]oxazin-7-yl)-6-(pyrazolo[1,5-a]pyrimidin-3-yl)-1H-pyrazolo[4,3-c]pyridine-3-carboxamido)ethyl)piperidine-4-carboxylic acid, reference compound], the “pIC50 (BEAS) predicted acid metabolite” value in assay [1] is recorded as “§ (pIC50<6.3)”.

For `COc1cc2c(cc1-n1nc(NC(=O)OCC(=O)O)c3cnc(-c4cnn5cccnc45)cc31)SCCN2` [Example A10, 2-(((1-(6-Methoxy-3,4-dihydro-2H-benzo[b][1,4]thiazin-7-yl)-6-(pyrazolo[1,5-a]pyrimidin-3-yl)-1H-pyrazolo[4,3-c]pyridin-3-yl)carbamoyl)oxy)acetic acid, reference compound], the “pIC50 (BEAS) predicted acid metabolite” value in assay [1] is “§ (pIC50<6.3)”.

In the case of `CCOC(=O)C1CCN(CCOC(=O)Nc2nn(-c3cc4c(cc3OC)NCCO4)c3cc(-c4cnn5cccnc45)ncc23)CC1` [Example 41, ethyl 1-(2-(((1-(6-methoxy-3,4-dihydro-2H-benzo[b][1,4]oxazin-7-yl)-6-(pyrazolo[1,5-a]pyrimidin-3-yl)-1H-pyrazolo[4,3-c]pyridin-3-yl)carbamoyl)oxy)ethyl)piperidine-4-carboxylate], the IC50 in assay [1] was at most 5.01 nM; at TYK2, 5.01 to 50.1 nM; at JAK1, at most 5.01 nM; at JAK3 it was at most 5.01 nM; on JAK2 it was at most 5.01 nM. In addition, in assay [1], the “Fold difference parent vs predicted acid metabolite” value is listed as “kkk (200>ratio≥100)”.

With `COc1cc2c(cc1-n1nc(C(=O)NCCN3CCC(CC(=O)O)CC3)c3cnc(-c4cnn5cccnc45)cc31)OCCN2` [Example A12, 2-(1-(2-(1-(6-methoxy-3,4-dihydro-2H-benzo[b][1,4]oxazin-7-yl)-6-(pyrazolo[1,5-a]pyrimidin-3-yl)-1H-pyrazolo[4,3-c]pyridine-3-carboxamido)ethyl)piperidin-4-yl)acetic acid, reference compound], in assay [1], the “pIC50 (BEAS) predicted acid metabolite” value is “§ (pIC50<6.3)”.

As to `COc1cc2c(cc1-n1nc(C(=O)NCCN3CCC(C(=O)O)CC3)c3cnc(-c4cnn5cccnc45)cc31)SCCN2` [Example A2, reference compound], the “pIC50 (BEAS) predicted acid metabolite” value in assay [1] was “§§ (7.3>pIC50≥6.3)”.

`COc1cc2c(cc1-n1nc(C(=O)NCCN3CC[C@@H](C(=O)O)C3)c3cnc(-c4cnn5cccnc45)cc31)OCCN2` [Example A4, reference compound]: in assay [1], the “pIC50 (BEAS) predicted acid metabolite” value is on record as “§ (pIC50<6.3)”.

As to `COc1cc2c(cc1-n1nc(NC(=O)OCCN3CCC(C(=O)O)CC3)c3cnc(-c4cnn5cccnc45)cc31)SCCN2` [Example A5, reference compound], the “pIC50 (BEAS) predicted acid metabolite” value in assay [1] is reported as “§§ (7.3>pIC50≥6.3)”.

In the case of `COc1cc2c(cc1-n1nc(NC(=O)OCC(=O)O)c3cnc(-c4cnn5cccnc45)cc31)OCCN2` [Example A6, reference compound], the “pIC50 (BEAS) predicted acid metabolite” value in assay [1] is “§ (pIC50<6.3)”.

In the case of `COc1cc2c(cc1-n1nc(C(=O)NCCN3CC[C@H](C(=O)O)C3)c3cnc(-c4cnn5cccnc45)cc31)OCCN2` [Example A3, reference compound], in assay [1], the “pIC50 (BEAS) predicted acid metabolite” value is reported as “§ (pIC50<6.3)”.

Take `COc1cc2c(cc1-n1nc(C(=O)O)c3cnc(-c4cnn5cccnc45)cc31)OCCN2` [Example A9, 1-(6-Methoxy-3,4-dihydro-2H-benzo[b][1,4]oxazin-7-yl)-6-(pyrazolo[1,5-a]pyrimidin-3-yl)-1H-pyrazolo[4,3-c]pyridine-3-carboxylic acid, reference compound]: in assay [1], the “pIC50 (BEAS) predicted acid metabolite” value is “§ (pIC50<6.3)”.

As to `COc1cc2c(cc1-n1nc(C(=O)NCCN3CCC(C(=O)O)CC3)c3cnc(Nc4ncc[nH]c4=O)cc31)OCCN2` [Example A11, reference compound], the “pIC50 (BEAS) predicted acid metabolite” value in assay [1] is given as “§ (pIC50<6.3)”.

With `COc1cc2c(cc1-n1nc(NC(=O)O[C@H]3C[C@@H](C(=O)O)C3)c3cnc(-c4cnn5cccnc45)cc31)OCCN2` [Example A7, reference compound], the “pIC50 (BEAS) predicted acid metabolite” value in assay [1] is given as “§ (pIC50<6.3)”.

(Values after patent US20260337208A1, “HETEROCYCLIC DERIVATIVES AS JANUS KINASE INHIBITORS” (CHIESI FARMACEUTICI S.P.A., priority 2022, published 2026).)
